In ChEMBL document CHEMBL5532661, “Discovery of a Novel Glucagon-like Peptide-1 (GLP-1) Analogue from Bullfrog and Investigation of Its Potential for Designing GLP-1-Based Multiagonists” (J Med Chem, 2024):
Active and inactive are the calls of the source. The calls are words filed in the database; no cut-off is given here. Numbered stars: 1 amine (or outer) side, 2 acyl side, 3 side chain; on linkers, the order of the positions; unused ones are H or OH. Square brackets hold non-standard residues; d marks the D form. Side chains are listed from the residue outwards. Peptide text beside a SMILES is read from it. * marks the point of attachment. C18 diacid = O=C(O)CCCCCCCCCCCCCCCCC(=O)*; γGlu = O=C(O)[C@H](CCC(=O)[*:2])N[*:1]; AEEA = NCCOCCOCC(=O)O; Aib = CC(C)(N)C(=O)O

Columns and labels:
[1] = system: Mus musculus; test: Reduction in feed intake in DIO mouse at 30 nmol/kg, sc treated twice a day measured after 21 days; assay type: functional, organism-based; settings: time 21.0 day
[2] = system: Mus musculus; test: Reduction in serum AST level in DIO mouse at 30 nmol/kg, sc treated twice a day measured after 21 days; assay type: functional, organism-based; settings: time 21.0 day
[3] = system: Mus musculus; test: Hypoglycemic effect in ICR mouse treated with 3 g/kg glucose assessed as reduction in blood glucose level at 100 nmol/kg, sc measured upto 120 mins by acute glucose lowering test; assay type: functional, organism-based
[4] = system: Mus musculus; test: Reduction in body weight in DIO mouse at 30 nmol/kg, sc treated twice a day measured after 21 days; assay type: functional; parameters: scale not given: the % may be the effect or the level left; settings: time 21 day
[5] = biological target: Glucagon receptor (Homo sapiens, UniProt P47871); test: Agonist activity at human GCGR expressed in HEK293 cells assessed as cAMP level measured after 60 mins by HTRF based assay; assay type: functional, cell-based
[6] = system: Mus musculus; test: Reduction in serum ALT level in DIO mouse at 30 nmol/kg, sc treated twice a day measured after 21 days; assay type: functional, organism-based; settings: time 21.0 day
[7] = biological target: T1, Glucagon-like peptide 1 receptor (Homo sapiens, UniProt P43220); test: Agonist activity at human GLP-1 receptor expressed in HEK293 cells assessed as cAMP level measured after 60 mins by HTRF based assay; assay type: functional, cell-based
[8] = system: Mus musculus; test: Anorexigenic effect in ICR mouse assessed as decrease in food intake at 30 nmol/kg, sc measured upto 72 hrs by acute food intake study; assay type: functional, organism-based
[9] = system: Mus musculus; test: Hypoglycemic effect in ICR mouse treated with 3 g/kg glucose assessed as reduction in blood glucose level at 30 nmol/kg, sc measured upto 120 mins pretreated with GLP-1R and GIPR antagonist by OGTT; assay type: functional, organism-based
[10] = system: Mus musculus; test: Antihyperglycemic effect in DIO mouse assessed as antihyperglycemic duration by measuring blood glucose at 30 nmol/kg, sc administered twice daily measured by hypoglycemic duration assay; assay type: functional, organism-based
[11] = system: Mus musculus; test: Reduction in serum AST in DIO mouse at 30 nmol/kg, sc treated every 2 and half day once measured after 21 days; assay type: functional, organism-based; settings: time 21.0 day
[12] = biological target: T2, Gastric inhibitory polypeptide receptor (Homo sapiens, UniProt P48546); test: Agonist activity at human GIPR receptor expressed in HEK293 cells assessed as cAMP level measured after 60 mins by HTRF based assay; assay type: functional, cell-based
T2 sequence (P48546 whole entry): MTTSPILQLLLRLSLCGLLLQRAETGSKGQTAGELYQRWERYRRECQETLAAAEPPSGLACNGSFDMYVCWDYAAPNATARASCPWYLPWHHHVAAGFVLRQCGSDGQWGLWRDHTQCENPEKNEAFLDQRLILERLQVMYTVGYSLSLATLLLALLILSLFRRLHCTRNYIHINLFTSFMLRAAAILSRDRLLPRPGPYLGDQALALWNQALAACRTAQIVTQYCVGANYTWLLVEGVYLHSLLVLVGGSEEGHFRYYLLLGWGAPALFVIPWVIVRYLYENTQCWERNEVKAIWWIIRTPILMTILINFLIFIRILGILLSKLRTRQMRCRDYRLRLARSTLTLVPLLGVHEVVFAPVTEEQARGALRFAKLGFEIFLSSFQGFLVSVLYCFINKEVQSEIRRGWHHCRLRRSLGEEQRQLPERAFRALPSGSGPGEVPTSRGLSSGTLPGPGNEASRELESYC

[13] = system: Mus musculus; test: Reduction in serum ALT in DIO mouse at 30 nmol/kg, sc treated every 2 and half day once measured after 21 days; assay type: functional, organism-based; settings: time 21.0 day
[14] = system: Mus musculus; test: Anorexigenic effect in ICR mouse assessed as decrease in food intake at 30 nmol/kg, sc measured at 48 hrs by acute food intake study; assay type: functional, organism-based
[15] = system: Mus musculus; test: Reduction in body weight in DIO mouse at 30 nmol/kg, sc treated every 2 and half day once measured after 21 days; assay type: functional; parameters: scale not given: the % may be the effect or the level left; settings: time 21 day
[16] = biological target: T1, Glucagon-like peptide 1 receptor; test: Potency index, ratio of Semaglutide EC50 to test compound EC50 for agonist activity at human GLP-1 receptor expressed in HEK293 cells assessed as cAMP level measured after 60 mins by HTRF based assay; assay type: functional, cell-based; settings: filed as agonist
[17] = system: Mus musculus; test: Reduction in serum triglyceride in DIO mouse at 30 nmol/kg, sc treated every 2 and half day once measured after 21 days; assay type: functional, organism-based; settings: time 21.0 day
[18] = system: Mus musculus; test: Anorexigenic effect in sc dosed ICR mouse assessed as decrease in food intake measured upto 72 hrs by acute food intake study; assay type: functional, organism-based; settings: dose 10-100 nmol/kg
[19] = system: Mus musculus; test: Antihyperglycemic effect in DIO mouse assessed as antihyperglycemic duration by measuring blood glucose at 30 nmol/kg, sc measured after 48 hrs by hypoglycemic duration assay; assay type: functional, organism-based
[20] = system: Mus musculus; test: Reduction in total fat mass in DIO mouse at 30 nmol/kg, sc treated every 2 and half day once measured after 21 days; assay type: functional, organism-based; settings: time 21.0 day
[21] = system: Mus musculus; test: Hypoglycemic effect in ICR mouse treated with 3 g/kg glucose assessed as reduction in blood glucose level at 30 nmol/kg, sc measured upto 120 mins pretreated with GLP-1R antagonist by OGTT; assay type: functional, organism-based
[22] = system: Mus musculus; test: Reduction in blood glucose level in non-fasting DIO mouse at 30 nmol/kg, sc treated every 2 and half day once measured after 21 days by glucose tolerance test; assay type: functional, organism-based; settings: time 21.0 day
[23] = system: Mus musculus; test: Reduction in hepatic lipid content in DIO mouse at 30 nmol/kg, sc treated every 2 and half day once measured after 21 days by H and E staining based assay; assay type: functional, organism-based; settings: time 21.0 day
[24] = system: Mus musculus; test: Anorexigenic effect in ICR mouse assessed as decrease in food intake at 10 nmol/kg, sc measured upto 72 hrs by acute food intake study; assay type: functional, organism-based
[25] = system: Mus musculus; test: Antihyperglycemic effect in DIO mouse assessed as prolonged antihyperglycemic duration by measuring blood glucose at 100 nmol/kg, sc; assay type: functional, organism-based
[26] = system: Mus musculus; test: Reduction in total cholesterol in DIO mouse at 30 nmol/kg, sc treated every 2 and half day once measured after 21 days; assay type: functional, organism-based; settings: time 21.0 day
[27] = system: Mus musculus; test: Antihyperglycemic effect in non-fasted DIO mouse assessed as decrease in blood glucose at 30 nmol/kg, sc measured upto 48 hrs; assay type: functional, organism-based

T1 sequence (P43220 whole entry): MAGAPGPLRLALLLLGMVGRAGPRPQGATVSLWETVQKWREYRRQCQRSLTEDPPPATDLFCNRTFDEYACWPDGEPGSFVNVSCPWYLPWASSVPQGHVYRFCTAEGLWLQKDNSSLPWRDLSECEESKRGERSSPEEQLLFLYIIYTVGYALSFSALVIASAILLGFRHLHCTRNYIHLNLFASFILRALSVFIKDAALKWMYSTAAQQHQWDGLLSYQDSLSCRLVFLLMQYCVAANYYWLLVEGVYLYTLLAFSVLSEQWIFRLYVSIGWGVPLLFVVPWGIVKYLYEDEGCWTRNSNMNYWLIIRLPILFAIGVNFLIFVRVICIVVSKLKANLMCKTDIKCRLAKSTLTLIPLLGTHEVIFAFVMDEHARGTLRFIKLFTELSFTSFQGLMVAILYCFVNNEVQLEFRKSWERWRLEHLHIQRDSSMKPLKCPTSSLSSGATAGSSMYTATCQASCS
Sequence of Glucagon receptor (P47871 whole entry): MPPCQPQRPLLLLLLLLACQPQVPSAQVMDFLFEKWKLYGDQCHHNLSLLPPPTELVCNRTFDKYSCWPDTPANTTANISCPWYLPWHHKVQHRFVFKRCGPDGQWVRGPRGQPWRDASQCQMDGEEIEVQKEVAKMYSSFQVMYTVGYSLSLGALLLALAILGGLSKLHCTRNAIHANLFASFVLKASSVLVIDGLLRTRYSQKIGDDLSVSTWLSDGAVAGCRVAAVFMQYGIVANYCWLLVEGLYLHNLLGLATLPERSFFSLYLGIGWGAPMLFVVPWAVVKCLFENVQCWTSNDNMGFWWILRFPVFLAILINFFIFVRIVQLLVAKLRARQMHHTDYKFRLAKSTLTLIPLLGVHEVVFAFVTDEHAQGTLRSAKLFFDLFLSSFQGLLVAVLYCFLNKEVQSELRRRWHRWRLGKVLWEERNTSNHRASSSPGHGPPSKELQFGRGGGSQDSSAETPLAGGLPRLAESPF

Structure (SMILES)	Activity [1]	Activity [3]	EC50 [5]	EC50 [7]	Activity [8]	Activity [10]	Activity [11]	Activity [13]	Activity [14]	Activity [15]	also measured
CCCCCCCCCCCCCCCC(=O)N[C@@H](CCC(=O)NCCCC[C@H](NC(=O)[C@H](CC(=O)O)NC(=O)[C@H](CO)NC(=O)[C@@H](NC(=O)[C@H](Cc1ccccc1)NC(=O)[C@@H](NC(=O)CNC(=O)[C@H](CCC(N)=O)NC(=O)[C@H](CO)NC(=O)[C@@H](N)Cc1c[nH]cn1)[C@@H](C)O)[C@@H](C)O)C(=O)N[C@@H](CO)C(=O)N[C@@H](CCC(=O)O)C(=O)N[C@@H](Cc1ccc(O)cc1)C(=O)N[C@@H](CC(C)C)C(=O)N[C@@H](CC(=O)O)C(=O)N[C@@H](CO)C(=O)N[C@@H](CCC(=O)O)C(=O)N[C@@H](CCCNC(=N)N)C(=O)N[C@@H](C)C(=O)N[C@@H](CCCNC(=N)N)C(=O)N[C@@H](CC(=O)O)C(=O)N[C@@H](Cc1ccccc1)C(=O)N[C@H](C(=O)N[C@@H](C)C(=O)N[C@@H](Cc1c[nH]c2ccccc12)C(=O)N[C@@H](CC(C)C)C(=O)N[C@@H](CCC(=O)O)C(=O)N[C@@H](C)C(=O)NCC(=O)NCC(=O)O)C(C)C)C(=O)O [COTADUTIDE]	Active	Active	0.17 nM	0.075 nM	Active	–	–	–	–	–	Activity [2]: Active; Activity [4]: ~24.6%; Activity [6]: Active
CC[C@H](C)[C@H](NC(=O)[C@H](Cc1ccccc1)NC(=O)[C@H](C)NC(=O)C(C)(C)NC(=O)[C@H](CCC(N)=O)NC(=O)[C@H](C)NC(=O)[C@H](CCCCNC(=O)COCCOCCNC(=O)CC[C@H](NC(=O)CCCCCCCCCCCCCCCCCCC(=O)O)C(=O)O)NC(=O)[C@H](CCCCN)NC(=O)[C@H](CC(=O)O)NC(=O)[C@H](CC(C)C)NC(=O)[C@](C)(CC(C)C)NC(=O)[C@@H](NC(=O)[C@H](CO)NC(=O)[C@H](Cc1ccc(O)cc1)NC(=O)[C@H](CC(=O)O)NC(=O)[C@H](CO)NC(=O)[C@@H](NC(=O)[C@H](Cc1ccccc1)NC(=O)[C@@H](NC(=O)CNC(=O)[C@H](CCC(N)=O)NC(=O)C(C)(C)NC(=O)[C@@H](N)Cc1ccc(O)cc1)[C@@H](C)O)[C@@H](C)O)[C@@H](C)CC)C(=O)N[C@@H](CCC(=O)O)C(=O)N[C@@H](Cc1ccc(O)cc1)C(=O)N[C@@H](CC(C)C)C(=O)N[C@@H](CC(C)C)C(=O)N[C@@H](CCC(=O)O)C(=O)NCC(=O)NCC(=O)N1CCC[C@H]1C(=O)N[C@@H](CO)C(=O)N[C@@H](CO)C(=O)NCC(=O)N[C@@H](C)C(=O)N1CCC[C@H]1C(=O)N1CCC[C@H]1C(=O)N1CCC[C@H]1C(=O)N[C@@H](CO)C(N)=O	Active	Active	0.23 nM	0.041 nM	Active	Active	Active	Active	Active	38.5%	Activity [9]: inactive; EC50 [12]: 0.022 nM
CC[C@H](C)[C@H](NC(=O)[C@H](CC(C)C)NC(=O)[C@H](Cc1c[nH]c2ccccc12)NC(=O)[C@H](CC(=O)O)NC(=O)[C@@H](NC(=O)[C@H](Cc1ccccc1)NC(=O)[C@H](CCC(=O)O)NC(=O)[C@H](CCCCNC(=O)COCCOCCNC(=O)COCCOCCNC(=O)CC[C@H](NC(=O)CCCCCCCCCCCCCCCCC(=O)O)C(=O)O)NC(=O)[C@H](C)NC(=O)[C@H](C)NC(=O)[C@H](CCC(=O)O)NC(=O)[C@H](CCC(=O)O)NC(=O)[C@H](CCC(=O)O)NC(=O)[C@H](CC(C)C)NC(=O)[C@H](Cc1ccc(O)cc1)NC(=O)[C@H](CO)NC(=O)[C@H](CO)NC(=O)[C@H](CCSC)NC(=O)[C@H](CC(=O)O)NC(=O)[C@H](CO)NC(=O)[C@@H](NC(=O)[C@H](Cc1ccccc1)NC(=O)[C@@H](NC(=O)CNC(=O)[C@H](CC(=O)O)NC(=O)C(C)(C)NC(=O)[C@@H](N)Cc1c[nH]cn1)[C@@H](C)O)[C@@H](C)O)C(C)C)C(=O)N[C@@H](CCCCN)C(=O)NCC(=O)N[C@@H](CCCNC(=N)N)C(=O)N1CCC[C@H]1C(=O)N[C@@H](C)C(N)=O (H-H[Aib]DGTFTSDMSSYLEEEAAK([AEEA-AEEA-γGlu-C18 diacid])EFVDWLIKGRPA-NH2)	–	Active	–	0.019 nM	Active	Active	Active	Active	Active	24.9%	Ratio EC50 [16]: 2.8; Activity [17]: Active; Activity [18]: Dose-Dependent Effect; Activity [19]: Active; Activity [20]: Active; Activity [21]: inactive; Activity [22]: Active; Activity [23]: Active; Activity [24]: Active; Activity [25]: Active; Activity [26]: Active; Activity [27]: Active
